Experimental data as given in patent US12516054B2, “Pyrazolo[1,5-a]pyridine derivatives, preparation method therefor and use thereof” (SHANGHAI DAIDAI INVESTMENT CONSULTING CO., LTD, priority 2019, dated 2026).

Key:
[1] = molecular target: GST-hRET kinase (658-1114) (Homo sapiens (Human), UniProt P07949); assay: Inhibitory activity on RET enzyme (HTRF KinEASE-TK); assay type: biochemical; settings: 0.5 nM RET kinase, 10 μM ATP, read-out: IC50 for inhibition on RET enzyme activity
Procedure: 2. Reagent Preparation • (1) 1× enzyme reaction buffer: 5× enzyme reaction buffer was diluted with ultrapure water (UPW) at 4:1, and then 25 nM SEB was added. • (2) 5×RET kinase: RET kinase was diluted with 1× enzyme reaction buffer to 2.5 nM. • (3) 5×ATP: ATP was diluted with 1× enzyme reaction buffer to 50 μM. • (4) 5× substrate: TK substrate-biotin was diluted with 1× enzyme reaction buffer to 2,500 nM. • (5) 2.5× compound: The highest final concentration was 2,500 nm, 3-fold gradient dilution was conducted to obtain 10 dilution points, and a final DMSO concentration was 0.4%. • (6) 4× Steptavidin-XL665: Steptavidin-XL665 was diluted with 1× enzyme reaction buffer to […]. 3. Experimental Process • (1) 5×RET kinase was added to a 384-well plate at 2 μl/well (final concentration of 0.5 nM), and a blank group (enzyme reaction buffer) was set as a negative control. • (2) A 2.5× compound solution was added at 4 μl/well, and then the plate was incubated at room temperature for 30 min. A DMSO group was set as a positive control. • (3) 5× substrate (at 2 μl/well, final concentration: 500 nM) and 5×ATP (at 2 μl/well, final concentration: 10 μM) were added to start a reaction, and the reaction was conducted at room temperature for 30 min. • (4) TK Antibody-Cryptate (at 5 μl/well) and 4× Steptavidin-XL665 (at 5 μl/well, final concentration: […]) were added, and the plate was incubated at room temperature for 60 min. • (5) An HTRF signal was read on Envision. 4. Data Analysis
The dosage effect (IC50) of the compound with analyzed using the Graph Pad prism software.

TT cells = assay: Inhibition of proliferation of tumor cells with abnormal RET (TT cells), CellTiter-Glo; assay type: cell-based; settings: 192 h, TT cells (human MTC, RET C634W), incubated 8 d, read-out: IC50 for inhibition on TT cell proliferation
Procedure: The following method was used to determine the inhibitory activity of the preferred compound of the present disclosure on the proliferation of TT cells in vitro. TT cells were a human medullary thyroid cancer (MTC) cell line, including the RET C634W mutation. The cell line was purchased from the American ATCC (Cat. No. ATCC® CRL-1803). The cells were cultivated at 37° C. and 5% CO2 with the Ham's F-12K (Kaighn's) medium (purchased from Thermofisher, Gibco, Cat. No. 21127022) that was supplemented with 10% fetal bovine serum (FBS, purchased from Thermofisher, Gibco, Cat. No. 12483-020), 1× Glutamax (purchased from Thermofisher, Gibco, Cat. No. 35050061), 1× non-essential amino acids (purchased from Thermofisher, Gibco, Cat. No. 11140050), and 1× Pen/Strep antibiotics (purchased from Thermofisher, Gibco, Cat. No. 15140122). Cell viability was determined using CellTiter-Glo® Luminescent Cell Viability Assay (Cat. No. G7573) of Promega.
Brief description of an experimental method: The day before the formal experiment, the cells at the logarithmic growth phase were digested with trypsin (purchased from Thermofisher, Gibco, Cat. No. 25300054), then an appropriate volume of the medium was added to terminate the trypsin reaction, and a resulting mixture was centrifuged at a speed of 1,000 rpm; a resulting supernatant was removed, and fresh medium was added to prepare a cell suspension; and 50 µL of the cell suspension was added to a 96-well cell culture plate (purchased from Corning, Cat. No. 3904) with a cell density of 6,000 cells/well, and then the cell culture plate was incubated overnight at 37° C. and 5% CO2. […] After the incubation was completed, 50 μL of a CellTiter-Glo reagent was added to each well, a resulting mixture was thoroughly shaken and then incubated at room temperature for 10 min in the dark, and then a signal of each well was read on the Envision microplate reader (Perkin Elmer). […]

GST-hRET kinase (658-1114), sequence (P07949 658-1114): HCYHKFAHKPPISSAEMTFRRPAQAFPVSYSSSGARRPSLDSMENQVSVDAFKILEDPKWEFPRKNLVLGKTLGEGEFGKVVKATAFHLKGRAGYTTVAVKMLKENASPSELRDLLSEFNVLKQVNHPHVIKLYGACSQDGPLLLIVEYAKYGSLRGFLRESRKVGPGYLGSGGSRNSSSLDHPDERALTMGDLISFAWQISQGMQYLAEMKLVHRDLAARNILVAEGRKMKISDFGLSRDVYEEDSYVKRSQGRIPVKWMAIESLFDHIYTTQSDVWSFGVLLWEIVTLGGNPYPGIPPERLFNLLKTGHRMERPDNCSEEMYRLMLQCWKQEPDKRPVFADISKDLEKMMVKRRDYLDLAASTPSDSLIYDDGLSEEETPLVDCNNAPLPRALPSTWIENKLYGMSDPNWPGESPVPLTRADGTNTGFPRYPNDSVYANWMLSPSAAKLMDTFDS

**Q.** With `COc1ccc(CN2CC=C(c3ccc(-c4cc(OCC(C)(C)O)cn5ncc(C#N)c45)cn3)CC2)cn1` [Compound 2, 6-(2-hydroxy-2-methylpropoxy)-4-(1′-((6-methoxypyridin-3-yl)methyl)-1′,2′,3′,6′-tetrahydro-[2,4′-bipyridin]-5-yl)pyrazolo[1,5-a]pyridine-3-carbonitrile] as the compound, how does the IC50 [1] read?
**A.** 25.4 nM

**Q.** How did the IC50 (TT cells) turn out when `COc1ccc(C(=O)N2CC=C(c3ccc(-c4cc(OCC(C)(C)O)cn5ncc(C#N)c45)cn3)CC2)cn1` [Compound 8, 6-(2-hydroxy-2-methylpropoxy)-4-(1′-(6-methoxynicotinoyl)-1′,2′,3′,6′-tetrahydro-[2,4′-bipyridin]-5-yl)pyrazolo[1,5-a]pyridine-3-carbonitrile] was run?
**A.** 87.8 nM

**Q.** How did the IC50 [1] turn out when `COc1ccc(CN2CC=C(c3ccc(-c4cc(-c5cnn(C)c5)cn5ncc(C#N)c45)cn3)CC2)cn1` [Compound 1, 4-(1′-((6-methoxypyridin-3-yl)methyl)-1′,2′,3′,6′-tetrahydro-[2,4′-bipyridin]-5-yl)-6-(1-methyl-1H-pyrazol-4-yl)pyrazolo[1,5-a]pyridine-3-carbonitrile] was run?
**A.** 23.1 nM

**Q.** What about the IC50 (TT cells) of the same compound?
**A.** 28.9 nM

**Q.** For `COc1ccc(CN2C3CC2CN(c2ccc(-c4cc(CCC(C)(C)O)cn5ncc(C#N)c45)cn2)C3)cn1` [Compound 10, 6-(3-hydroxy-3-methylbutyl)-4-(6-(6-((6-methoxypyridin-3-yl)methyl)-3,6-diazabicyclo[3.1.1]heptan-3-yl)pyridin-3-yl)pyrazolo[1,5-a]pyridine-3-carbonitrile], which IC50 [1] is on record?
**A.** 5.6 nM

**Q.** And the IC50 (TT cells)?
**A.** 68.6 nM
